According to PMC10580381 (ACS Pharmacology & Translational Science, 2023):
“Also recorded” adds a separate entry of the source.

Legend:
E-cadherin = test: Western blot of E-cadherin in H1975 cells; assay type: cell-based, human; settings: concentration-dependent
recombinant human HDAC8 = molecular target: T1, recombinant human HDAC8 (Homo sapiens, UniProt Q9BY41); test: biochemical
T1 sequence (Q9BY41 1-377): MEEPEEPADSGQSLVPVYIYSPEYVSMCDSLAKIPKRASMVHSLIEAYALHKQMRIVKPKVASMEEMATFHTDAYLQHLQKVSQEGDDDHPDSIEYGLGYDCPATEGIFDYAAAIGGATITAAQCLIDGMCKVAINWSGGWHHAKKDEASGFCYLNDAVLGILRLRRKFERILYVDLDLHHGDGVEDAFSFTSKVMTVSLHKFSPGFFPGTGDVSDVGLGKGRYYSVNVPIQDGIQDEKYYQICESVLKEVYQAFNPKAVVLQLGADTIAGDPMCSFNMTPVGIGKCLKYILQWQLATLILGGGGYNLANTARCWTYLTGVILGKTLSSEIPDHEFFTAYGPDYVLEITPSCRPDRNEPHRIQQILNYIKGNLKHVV

recombinant human HDAC2 = molecular target: T2, recombinant human HDAC2 (Homo sapiens, UniProt Q92769); test: Biochemical HDAC activity assay, recombinant HDAC2; settings: recombinant HDAC2, mean ± SD, three independent experiments
T2 construct: purchased Creative Biomart
T2 sequence (Q92769 whole entry): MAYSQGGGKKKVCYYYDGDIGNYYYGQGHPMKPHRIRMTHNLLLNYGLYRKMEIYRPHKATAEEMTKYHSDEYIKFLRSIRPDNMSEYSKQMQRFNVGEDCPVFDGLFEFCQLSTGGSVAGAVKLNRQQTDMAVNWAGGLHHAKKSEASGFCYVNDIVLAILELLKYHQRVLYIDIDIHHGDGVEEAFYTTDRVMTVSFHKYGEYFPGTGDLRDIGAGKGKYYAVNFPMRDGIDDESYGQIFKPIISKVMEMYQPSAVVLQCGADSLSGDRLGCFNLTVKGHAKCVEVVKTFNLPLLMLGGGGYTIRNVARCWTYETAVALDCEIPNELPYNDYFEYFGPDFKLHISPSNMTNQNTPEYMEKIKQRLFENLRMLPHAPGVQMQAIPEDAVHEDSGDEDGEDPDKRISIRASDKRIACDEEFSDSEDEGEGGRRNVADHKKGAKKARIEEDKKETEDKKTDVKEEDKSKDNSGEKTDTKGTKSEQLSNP

H1975 cells [1] = test: Transwell invasion assay; assay type: cell-based, human; settings: flunarizine 5 or 10 μM, 48 h
recombinant human HDAC1 = recombinant human HDAC1 (Homo sapiens, UniProt Q13547); test: biochemical
recombinant human HDAC1, sequence (Q13547 whole entry): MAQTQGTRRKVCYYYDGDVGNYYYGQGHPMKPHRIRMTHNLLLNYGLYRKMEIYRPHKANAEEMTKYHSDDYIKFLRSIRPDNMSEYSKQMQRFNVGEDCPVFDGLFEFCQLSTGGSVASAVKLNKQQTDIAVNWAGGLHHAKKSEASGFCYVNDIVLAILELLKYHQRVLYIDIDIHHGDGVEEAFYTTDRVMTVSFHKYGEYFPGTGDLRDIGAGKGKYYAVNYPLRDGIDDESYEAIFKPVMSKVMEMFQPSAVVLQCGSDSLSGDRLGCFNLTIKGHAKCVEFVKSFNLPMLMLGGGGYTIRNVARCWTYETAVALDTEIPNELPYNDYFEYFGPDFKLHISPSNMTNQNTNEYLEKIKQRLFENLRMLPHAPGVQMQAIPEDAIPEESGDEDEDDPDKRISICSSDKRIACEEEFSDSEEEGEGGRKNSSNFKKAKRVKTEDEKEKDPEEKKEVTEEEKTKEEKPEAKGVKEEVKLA

α-tubulin acetylation = test: Western blot of α-tubulin acetylation in H1975 cells; assay type: cell-based, human; settings: flunarizine up to 10 μM, 24 h
Description: After the cancer cells were treated with the designated drug candidates, they were harvested in lysis buffer (0.05 M HEPES, 0.15 M NaCl, 2 mM EDTA, 10% v/v glycerol, and 1% v/v Triton X-100, pH 7.4) supplemented with protease and phosphatase inhibitors. Sodium dodecyl sulfate poly(acrylamide) gel electrophoresis (SDS-PAGE) was used to separate the different proteins in the whole cell lysates, which were then transferred to a poly(vinylidene difluoride) membrane for immunoblot analysis using different specific antibodies (acetylated histone H3, acetylated α-tubulin, histone H3, or GAPDH; Cell Signaling Technology). The bands corresponding to specific proteins of interest were visualized by using the WesternBright ECL HRP substrate (Advansta, San Jose, California). A chemiluminescent Western blot signal was detected and analyzed using a ChemiDoc MP system (Bio-Rad Laboratories, Hercules, California).

H820 cells [2] = test system: H820 cells
H1975 cells [3] = test: cells; settings: Homo sapiens, NCI-H1975, read-out: cell viability (%)
H820 cells [4] = test: cells; settings: Homo sapiens, NCI-H820, read-out: cell viability (%)
recombinant human HDAC3 = recombinant human HDAC3 (Homo sapiens, UniProt O15379); test: biochemical
recombinant human HDAC3, sequence (O15379 whole entry): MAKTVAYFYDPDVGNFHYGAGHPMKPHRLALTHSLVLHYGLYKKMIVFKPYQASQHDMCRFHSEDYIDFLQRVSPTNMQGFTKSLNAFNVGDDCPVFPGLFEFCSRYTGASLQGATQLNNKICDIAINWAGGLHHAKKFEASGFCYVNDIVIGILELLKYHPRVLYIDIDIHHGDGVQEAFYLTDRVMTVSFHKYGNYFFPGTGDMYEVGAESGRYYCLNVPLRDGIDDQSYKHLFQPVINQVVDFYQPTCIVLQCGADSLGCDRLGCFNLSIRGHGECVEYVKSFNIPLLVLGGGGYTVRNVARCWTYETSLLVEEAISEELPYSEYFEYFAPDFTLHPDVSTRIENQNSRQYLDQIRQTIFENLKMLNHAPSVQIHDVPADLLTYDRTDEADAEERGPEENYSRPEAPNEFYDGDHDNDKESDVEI
recombinant human HDAC3, sequence (Q9Y618 395-489 partner limits assumed): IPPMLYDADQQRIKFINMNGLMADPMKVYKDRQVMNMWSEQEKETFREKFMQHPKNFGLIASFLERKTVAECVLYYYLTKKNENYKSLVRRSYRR

[5] = in vivo; cited from earlier work
vimentin = test: Western blot of vimentin in H1975 cells; assay type: cell-based, human; settings: concentration-dependent
NSCLC cell lines = test: cells; assay type: cell-based; settings: Homo sapiens, read-out: effect on cancer cell viability
H1975 cells [6] = test: Wound healing assay; assay type: cell-based, human; settings: up to 48 h
Text: After the cells had grown to about 80% confluence, a physical gap was created on the cell monolayer by scratching with a pipet tip. […] The scratch closure rate was estimated by the change in the wound width over time. It was presented as the relative gap width (%) by dividing the average distance between the two margins of the scratch at the indicated time by the initial distance at the start of the wound healing assay.

H1975 cells [7] = settings: flunarizine alone 5 or 10 μM, 24 h (Figure 3)
Description: Afterward, ethanol was discarded, and the fixed cells were incubated with RNase I (25 μg/mL) at 37 °C for 30 min. Then, the cells were stained with propidium iodide (50 μg/mL) at room temperature for at least 1 h and analyzed by using a flow cytometer (BD LSRFortessa; BD Biosciences). At least 10,000 events were acquired for each sample. ModFit software (Verity Software House, Topsham, Maine) was used to analyze the cell cycle profile.

H1650 cells = test: cells; settings: Homo sapiens, NCI-H1650, read-out: cell viability (%)
p27^Kip1 (CDKN1B) = test: Real-time PCR of p27^Kip1 expression in H1975; assay type: cell-based, human; settings: H1975, 24 h, flunarizine 2.5, 5, or 10 μM or SAHA 0.25, 0.5, or 1 μM; all concentrations tested
Description: Reverse transcription was performed using 1 μg of total RNA sample with the PrimeScript First Strand cDNA Synthesis Kit (TaKaRa Biomedical Technology) at 37 °C for 10 min. The cDNA was then amplified by real-time PCR to determine the relative expression of p27^Kip1 and BIM using the KAPA SYBR FAST qPCR kit (KapaBiosystems, Wilmington, Massachusetts) with a LightCycler 480 Instrument I instrument (Roche Applied Science, Indianapolis, Indiana). The house-keeping gene GAPDH was also measured for normalization. Specific primer sequences used in the PCR reactions are p27^Kip1, forward 5′-[…]-3′ and reverse 5′-[…]-3′; Bim, forward 5′-[…]-3′ and reverse 5′-[…]-3′; and GAPDH, forward 5′-[…]-3′ and reverse 5′-[…]-3′. The PCR temperature program was set at 95 °C for 5 min, followed by 35 cycles of 95 °C for 10 s and 60 °C for 10 s. The fluorescent signal was detected at the end of the PCR elongation step of every cycle to keep track of the amount of amplified DNA. ΔCt was calculated by subtracting the Ct of GAPDH from the Ct of Bim or p27^Kip1. Fold change in gene expression was analyzed by the 2^–ΔΔCt method.

Q: With `Fc1ccc(C(c2ccc(F)cc2)N2CCN(C/C=C/c3ccccc3)CC2)cc1` [flunarizine] as the compound, how does the E-cadherin expression (E-cadherin) read?
A: upregulate

Q: And the IC50 (recombinant human HDAC8)?
A: 5500 ± 450 nM

Q: What about the IC50 (recombinant human HDAC2) of the same compound?
A: 360 ± 26 nM

Q: And the cancer cell invasion (H1975 cells [1])?
A: inhibition

Q: And the IC50 (recombinant human HDAC1)?
A: 285 ± 15 nM

Q: And the “effect on acetylation of α-tubulin” value (α-tubulin acetylation)?
A: did not affect acetylation of α-tubulin; also recorded: did not affect the acetylation

Q: And the viability (H820 cells [2])?
A: 89 ± 5%

Q: And the viability at 2.5 µM (H1975 cells [3])?
A: 95 ± 8%

Q: And the viability at 5 µM (H1975 cells [3])?
A: 94 ± 6%

Q: And the viability at 10 µM (H1975 cells [3])?
A: 86 ± 7%

Q: And the viability at 2.5 µM (H820 cells [4])?
A: 103 ± 5%

Q: What about the viability at 5 µM (H820 cells [4]) of the same compound?
A: 94 ± 7%

Q: And the IC50 (recombinant human HDAC3)?
A: 305 ± 31 nM

Q: And the elimination half-life [5]?
A: around 18 days

Q: And the vimentin expression (vimentin)?
A: downregulate

Q: What about the viability at 20 µM (NSCLC cell lines) of the same compound?
A: ≤ 25%

Q: And the “effect on cell viability of BEAS-2B” value (BEAS-2B)?
A: did not appreciably affect the cell viability

Q: What about the cancer cell migration (H1975 cells [6]) of the same compound?
A: inhibited the cell migration ability

Q: And the “G1 cell cycle arrest” value (H1975 cells [7])?
A: induce G1 cell cycle arrest

Q: What about the viability at 2.5 µM (H1650 cells) of the same compound?
A: 93 ± 4%

Q: What about the viability at 5 µM (H1650 cells) of the same compound?
A: 92 ± 5%

Q: And the viability at 10 µM (H1650 cells)?
A: 87 ± 6%

Q: What about the “p27^Kip1 expression” value (p27^Kip1 (CDKN1B)) of the same compound?
A: significantly increase
